{"source": "paper PMC9220805", "about": "“The 26S Proteasome Switches between ATP-Dependent and -Independent Mechanisms in Response to Substrate Ubiquitination” (Biomolecules, 2022)", "test_system": "T1, 26S proteasome (WT proteasome)", "T1 construct": "gene RPT1; native 26S holoenzyme (19S + 20S) purified by 3xFLAG-tagged Rpn11; with Ubiquitin carboxyl-terminal hydrolase RPN11", "experiment": "SDS-PAGE fluorescence degradation assay of Cy5-labelled ubiquitinated substrate", "type": "biochemical, Saccharomyces cerevisiae", "settings": "1 mM ATPγS in place of ATP regeneration system; 100 nM proteasome, 20 nM substrate, 5 mM MgCl2, pH 7.5, 30 °C; nonhydrolyzable ATP analog"}
{"compound": "Nc1ncnc2c1ncn2[C@@H]1O[C@H](COP(=O)(O)OP(=O)(O)OP(O)(O)=S)[C@@H](O)[C@H]1O", "note": "[ATPγS]", "values": [{"measurement": "SDS-PAGE fluorescence degradation assay of Cy5-labelled ubiquitinated substrate", "value": "ATPγS considerably slowed degradation of the ubiquitinated-Rpn4-containing substrate"}]}
